The nature of data set [1]: physchem.
Data set [2] deals with Fusarium proliferatum. The data set can be described thus: Example I: production of fumonisin FB1 by Fusarium proliferatum (microtitre plates). In kind it is cell-based. As to conditions: 120 h.
The subject of data set [3] is Sphaerotheca fuliginea. The data set can be described thus: Example L: in vivo test on Sphaerotheca fuliginea (powdery mildew on cucumber/protective). As to conditions: Podosphaera fuliginea, 168 h, cucumber, protective, assessment 7 days after inoculation, read-out: % Wirkungsgrad. As for the experimental part: Solvent: 49 parts by weight N,N-dimethylformamide Emulsifier: 1 part by weight alkylaryl polyglycol ethers For the preparation of a suitable active substance preparation, 1 part by weight of active substance is mixed with the stated quantities of solvent and emulsifier and the concentrate is diluted to the desired concentration with water. For the testing for protective activity, young cucumber plants are sprayed with the active substance preparation at the stated application dosage. One day after the treatment, the plants are inoculated with a spore suspension of Sphaerotheca fuliginea. Next, the plants are placed in a greenhouse at 70% relative atmospheric humidity and a temperature of 23° C. 7 days after the inoculation, the assessment takes place.

The test system of data set [4] is Alternaria solani. The data set can be described thus: Example M: in vivo test on Alternaria solani (leaf blotch disease/tomato/protective). As to conditions: 168 h, tomato, protective, 500 ppm active substance, assessed 7 days after inoculation, read-out: % Wirkungsgrad (activity level). A digest of the protocol:
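Protective test: young tomato plants sprayed with active substance (in DMF with alkylaryl polyglycol ether emulsifier, diluted in water) at the stated dosage, then inoculated with Alternaria solani. Disease assessed 7 days after inoculation.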

In data set [5] the test system is Fusarium graminearum. The data set can be described thus: microbe, parasite or virus in culture. In kind it is cell-based.
Setting [6] is: LogPA (logP of the stated pure compound or, in a mixture, of the main isomer, 1-substituted 3-aryl-1H-pyrazole).
[7] abbreviates: Fusarium proliferatum growth, OD 620, 5 days, read-out: % Inhibition des Pilzwachstums bei 50 μM.
Setting [8] is: Fusarium proliferatum, 5 days at 20° C., HPLC-MS/MS, read-out: % Inhibition der FB1 produktion bei 50 μM.
The mark [9] stands for this setting: 72 h, read-out: % Inhibition des Pilzwachstums bei 50 μM.
[10] abbreviates: 168 h, read-out: % Inhibition der DON/AcDON produktion bei 50 μM.

Read-outs that look alike come from different tables or passages of the source.

As to `FC(F)(F)c1cccc(-c2nn(C3CCCCO3)cc2-c2ccnc3[nH]ccc23)c1` (centres unmarked) [Compound 50], the chromatographic logP (as a rule, lipophilicity estimated from chromatographic retention) in data set [1] (setting [6]) worked out at 2.93. Moreover, the inhibition at 50 µM in data set [2] (setting [7]) turned out to be 8%; in data set [2] (setting [8]), 89%.
The matching figures for `CC(C)(C)n1cc(-c2ccncc2)c(-c2ccc(F)cc2)n1` [Compound 58]: 2.62, 42% and 89%.
Consider `c1ccc(Oc2ccc(-c3c(-c4ccncc4)cnn3C3CCCCO3)cc2)cc1` (centres unmarked) [Compound 59, 4-[5-(4-phenoxyphenyl)-1-(tetrahydro-2H-pyran-2-yl)-1H-pyrazol-4-yl]pyridine], for which the chromatographic logP in data set [1] (setting [6]) came to 1.88. For the same compound, the inhibition at 50 µM is 0% in data set [2] (setting [7]) and 95% in data set [2] (setting [8]).
The matching figures for `N#Cc1cccc(-c2c(-c3ccncc3)cnn2C2CCCCO2)c1` (centres unmarked) [Compound 60, 3-[4-(pyridin-4-yl)-1-(tetrahydro-2H-pyran-2-yl)-1H-pyrazol-5-yl]benzonitrile]: 1.23, 92% and 100%.
The matching figures for `Fc1ccc(-c2nn(C3CCCCO3)cc2-c2ncnc3[nH]ccc23)cc1` (centres unmarked) [Compound 66]: 1.69, 40% and 85%.
The matching figures for `Clc1ccc(-c2c(-c3ccncc3)cnn2C2CCCCO2)cc1` (centres unmarked) [Compound 70, 4-[5-(4-chlorophenyl)-1-(tetrahydro-2H-pyran-2-yl)-1H-pyrazol-4-yl]pyridine]: 1.52, 0% and 92%.
`CC(C)Cn1cc(-c2ccnc(NC(=O)Cc3ccccc3)c2)c(-c2ccc(F)cc2)n1` [Compound 191] registered a chromatographic logP in data set [1] (LogPA) of 3.54. For the same compound, the inhibition at 50 µM in data set [2] (setting [7]) turned out to be 1%; in data set [2] (setting [8]) it was 96%.
In data set [1] (LogPA), `CCC(=O)Nc1cc(-c2cn(OC(C)C)nc2-c2ccc(F)cc2)ccn1` [Compound 226] yielded a chromatographic logP of 2.58. In addition, the pest or weed control at 500 ppm in data set [3] and in data set [4] was 95% in each case. The inhibition at 50 µM was 85% in data set [5] (setting [9]) and 100% in data set [5] (setting [10]).
Compound `CC(C)Cn1cc(-c2ccncc2-c2cccc(F)c2)c(-c2ccc(F)cc2)n1` [Compound 229] came in with a chromatographic logP in data set [1] (LogPA) of 3.13. Moreover, the pest or weed control at 500 ppm was determined as 94% in data set [3] and 95% in data set [4]. Moreover, the inhibition at 50 µM worked out at 0% in data set [5] (setting [9]) and 97% in data set [5] (setting [10]).
In data set [1] (LogPA), `CC(C)C(=O)Nc1cc(-c2cn(C(C)c3ccccc3F)nc2-c2ccc(F)cc2)ccn1` (centres unmarked) [Compound 232] displayed a chromatographic logP of 3.41. The pest or weed control at 500 ppm was 93% in data set [3] and 95% in data set [4]. Also, the figures for the inhibition at 50 µM in data set [5] (setting [9]) and in data set [5] (setting [10]) were 0% and 80%, respectively.
Consider `CC(C)n1cc(-c2ccnc(NC(=O)N(C)C)c2)c(-c2ccc(F)cc2)n1` [Compound 233], for which the chromatographic logP in data set [1] (LogPA) amounted to 1.6. For the same compound, the pest or weed control at 500 ppm came out at 95% in data set [3] and 90% in data set [4]. The inhibition at 50 µM in data set [5] (setting [9]) and in data set [5] (setting [10]) was 100% in each case.
In turn, `COCC(=O)Nc1cc(-c2cn(CC3CC3(Cl)Cl)nc2-c2ccc(F)cc2)ccn1` (centres unmarked) [Compound 245] had a chromatographic logP in data set [1] (LogPA) of 3.22. The values for the pest or weed control at 500 ppm in data set [3] and in data set [4] were 88% and 94%, respectively. Moreover, the values for the inhibition at 50 µM in data set [5] (setting [9]) and in data set [5] (setting [10]) were 95% and 99%, respectively.
In data set [1] (LogPA), `Cn1nc(-c2ccc(F)cc2O)c(-c2ccnc(NC(=O)C3CC3)c2)c1OC(F)F` [Compound 258] had a chromatographic logP of 2.22. The pest or weed control at 500 ppm in data set [3] was determined as 80%; in data set [4], 95%. For the same compound, the inhibition at 50 µM was found to be 79% in data set [5] (setting [9]) and 98% in data set [5] (setting [10]).
The matching figures for `CCOC(=O)Nc1cc(-c2cn(CC(C)C)nc2-c2ccc(F)cc2)ccn1` [Compound 267]: 3.11, 98%, 95%, 59% and 97%.
The matching figures for `CCOCCn1cc(-c2ccnc(NC(=O)CC)c2)c(-c2ccc(F)cc2)n1` [Compound 326]: 2.01, 94%, 95%, 107% and 100%.
The matching figures for `CCOCCn1cc(-c2ccnc(NC(=O)C(C)C)c2)c(-c2ccc(F)cc2)n1` [Compound 328]: 2.32, 100%, 95%, 101% and 100%.
For `CCOCCn1cc(-c2ccnc(NC(=O)CC3CC3)c2)c(-c2ccc(F)cc2)n1` [Compound 329], the chromatographic logP in data set [1] (LogPA) was 2.48. For the same compound, the results for the pest or weed control at 500 ppm in data set [3] and in data set [4] were 94% and 95%, respectively. Further, the inhibition at 50 µM worked out at 104% in data set [5] (setting [9]) and 100% in data set [5] (setting [10]).
In turn, `Cn1cc(-c2ccnc(NC(=O)C3CCC3)c2)c(-c2ccc(F)cc2)n1` [Compound 349] came in with a chromatographic logP in data set [1] (LogPA) of 1.93. Moreover, the pest or weed control at 500 ppm in data set [3] is 95%; in data set [4] it was 80%.
The matching figures for `CC(=O)Nc1cc(-c2cn(C)nc2-c2ccc(F)cc2)ccn1` [Compound 350]: 1.32, 94% and 95%.
As to `CCn1cc(-c2ccnc(NC(=O)C(N)=O)c2)c(-c2ccc(F)cc2)n1` [Compound 351], the chromatographic logP in data set [1] (LogPA) was 1.99. Moreover, the pest or weed control at 500 ppm in data set [3] came out at 80%; in data set [4] it was 95%.
The matching figures for `CCn1cc(-c2ccnc(NC(=O)[C@H](C)O)c2)c(-c2ccc(F)cc2)n1` [Compound 352]: 1.83, 73% and 95%.
The matching figures for `CC(C)n1cc(-c2ccnc(N)n2)c(-c2ccc(F)cc2)n1` [Compound 366]: 1.54, 94% and 80%.
`Cc1c(-c2ccncc2)c(-c2ccc(F)cc2)nn1CC(F)F` [Compound 367] yielded a chromatographic logP in data set [1] (LogPA) of 1.49. Moreover, the results for the pest or weed control at 500 ppm in data set [3] and in data set [4] were 84% and 95%, respectively.
The matching figures for `Cc1c(-c2ccncc2)c(-c2ccc(F)cc2)nn1CC(C)C` [Compound 368]: 2.07, 94% and 95%.
With `CC(C)n1cc(-c2ccnc(NCc3ccccc3)n2)c(-c2ccc(F)cc2)n1` [Compound 369], the chromatographic logP in data set [1] (LogPA) turned out to be 3.31. Further, the pest or weed control at 500 ppm in data set [3] was 88%; in data set [4], 90%.
In data set [1] (LogPA), `CC(C)Nc1nccc(-c2cn(C(C)C)nc2-c2ccc(F)cc2)n1` [Compound 371] yielded a chromatographic logP of 2.92. The pest or weed control at 500 ppm in data set [3] came to 94%; in data set [4], 95%.

(Values after US20110183978A1, “Phenylpyri(mi)dinylazoles” (Bayer CropScience AG, priority 2009, published 2011).)
